Measured values published in publication PMC6337650 (Molecules, 2018).

Assays:
Cyclin A = experiment: Western blot, cyclin A in HCT-116 cells; format: cell-based, human; settings: HCT-116, 5, 10 and 15 μM, 24 h, concentration-dependent
Protocol: HCT-116 cells were cultured with different concentrations of compound 5d for 24 h. Then, the floating cells was collected and washed two times with ice cold PBS. The pellet was resuspended in lysis buffer. After the cells were lysed on ice for 20 min, lysates were centrifuged at 12,000 rpm at 4 °C for 15 min. The protein concentration in the supernatant was determined using BCA protein assay reagents. Equal amounts of protein (50 μg) were resolved using sodium dodecyl sulphate-polyacrylamide gel electrophoresis (SDS-PAGE) (8−12% acrylamide gels) and transferred to a PVDF Hybond-P membrane. Membranes were blocked with PBS containing 5% non-fat milk for 1 h at room temperature. Membranes were then incubated with primary antibodies against Cyclin A (ENT1167, Elabscience, Wuhan, China), Cyclin E1 (ENT1176, Elabscience, Wuhan, China), Cyclin B1 (ENT1169, Elabscience, Wuhan, China) and β-actin (ENM0028, Elabscience, Wuhan, China), with gentle rotation overnight at 4 °C. Membranes were next incubated with fluorescent secondary antibodies for 2 h. Proteins were detected by electrochemiluminescence (Bio-Rad, Hercules, CA, USA).

HCT-116 cells [1] = experiment: Colony formation assay; format: cell-based; settings: Homo sapiens, HCT-116, 168 h, 7 days, read-out: inhibition rate of colony formation
Protocol: Exponentially growing determined HCT-116 cells (6 × 10^2 per well) were plated in 6-well plates with the Roswell Park Memorial Institute (RPMI) 1640 culture medium (Gibco, USA) containing with 10% fetal bovine serum (FBS) (Gibco, Waltham, MA, USA). After an overnight incubation, the culture medium was removed and replaced fresh medium. Then, the cells were treated with various concentrations of compound 5d (5, 10 and 15 μM) dissolved in DMSO. Some cells were treated with DMSO only as a negative control. The cells were then incubated for another 7 days. Finally, the cells were fixed with 4% paraformaldehyde for 30 min and stained with 0.1% crystal violet for 15 min at room temperature, after which, the staining was washed with PBS until the colonies were totally cleared.

BEL-7402 cells = experiment: MTT antiproliferative assay, BEL-7402; format: cell-based, human
In short: (§1)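 Cells seeded at 9 × 10^3 per well, allowed 24 h to adhere, then exposed 48 h to compound at 1, 10, 50 and 100 µM. MTT added to 2 mg/mL for 4 h, formazan dissolved in DMSO, OD read at 492 nm; inhibition calculated relative to untreated and blank wells.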

[2] = MTT antiproliferative assay, BEL-7402; format: cell-based, human; settings: human, BEL-7402 liver cancer cells versus normal L02 cells; BEL-7402 vs L02
In short: as §1

HCT-116 cells [3] = experiment: Apoptosis by annexin V-FITC/propidium iodide flow cytometry; format: cell-based, human; settings: 24 h; for percentage of total apoptotic cells (UR + LR): control 5.98%
Protocol: Apoptosis was detected using an Apoptosis Detection Kit (Invitrogen, Eugene, OR, USA). In brief, cells were cultured in 6-well plates (5.0 × 10^5 cells per well) and incubated at 37 °C for 24 h. Cells with exponential growth were then incubated with compound 5d at 5 and 15 µM. Following 24 h of incubation, the cells were collected, washed twice with PBS and once with 1 × binding buffer and then stained with […] of annexin V-FITC and […] of PI 5mg/mL in 1 × binding buffer for 30 min at room temperature in the dark. Apoptotic cells were enumerated using a FACSCalibur flow cytometer with Cell Quest software (Becton–Dickinson, Franklin Lakes, NJ, USA).

Compound: Cc1ccc(-n2cc(CNC(=O)COC(=O)[C@]3(C)CCC[C@@]4(C)[C@@H]5CC[C@@]6(C)C[C@]5(CC[C@@H]43)CC6=O)nn2)cc1 [Compound 5d, 2-oxo-2-(((1-(p-tolyl)-1H-1,2,3-triazol-4-yl)methyl)amino)ethyl(4R,4aS,6aR,9S,11aR,11bS)-4,9,11b-trimethyl-8-oxotetradecahydro-6a,9-methanocyclohepta[a]naphthalene-4-carboxylate]
- cyclin A protein level (Cyclin A): decreased
- inhibition at 15 µM (HCT-116 cells [1]): 84%
- inhibition at 100 µM (BEL-7402 cells; Homo sapiens, Bel-7402, 100 μM, 48 h, MTT, mean ± SD, n=3, read-out: % Growth Inhibition at 100 μM BEL-7402): 86.5 ± 0.87%
- IC50 (BEL-7402 cells; Homo sapiens, Bel-7402, 48 h, MTT, mean ± SD, n=3): 15.9 ± 0.41 µM
- Selectivity Index BEL-7402 (BEL-7402 cells; IC50 on normal cells (L02)/IC50 on cancer cells): 10.12
- fold more active than 5-FU (BEL-7402 cells; against BEL-7402 cells): 1.3 fold
- selectivity ratio at 48 h [2]: 11.2
- percentage of total apoptotic cells (UR + LR) (HCT-116 cells [3]; 5 μM): 7.67%
- percentage of total apoptotic cells (UR + LR) (HCT-116 cells [3]; 15 μM): 24.94%
- dead cells (UL) (HCT-116 cells [3]; 15 μM, control 8.84%): 49.22%
